Measured values as given in patent publication US6864253B2, “Benzo[4,5]thieno[2,3-c]pyridine and Benzo[4,5]furo[2,3-c]pyridine Derivatives Useful as Inhibitors of Phosphodiesterase” (Orth-McNeil Pharmaceutical, Inc., priority 2000, dated 2005).
Several values for one entry are separate records, joined by “and”; a condition that tells them apart may be missing. Identical values can stand only once.

Target: T1, PDEV (Oryctolagus cuniculus, UniProt G1SX67)
Assay: Cyclic nucleotide phosphodiesterase (PDE) assay, inhibition of PDEV isolated from rabbit tissue
Assay type: biochemical
Settings: not given
Protocol: Briefly, rabbit or human tissues were homogenized in an ice-cold buffer solution containing 20 mM HEPES (pH 7.2), 0.25M sucrose, 1 mM EDTA, and 1 mM phenylmethylsulphonyl fluoride (PMSF). The homogenates were centrifuged at 100,000 g for 60 minutes at 4° C. The supernatant was filtered through […] filter and loaded on a Pharmacia Mono Q anion exchange column (1 ml bed volume) that was equilibrated with 20 mM HEPES, 1 mM EDTA and 0.5 mM PMSF. […] The fractions comprising various PDE activities were pooled separately and used in later studies.
(§1) The assays were adapted to a 96-well format. The enzyme was assayed in 5 mM MgCl2, 15 mM Tris HCl (pH 7.4), 0.5 mg/ml bovine serum albumin, 1 μM cGMP or cAMP, 0.1 μCi [^3H]-cGMP or [^3H]-cAMP, and 2-10 μl of column elution. The total volume of the assay was 100 μl. The reaction mixture was incubated at 30° C. for 30 minutes. The reaction was stopped by boiling for 1 minute and then cooled down on ice. The resulting [^3H] 5′-mononucleotides were further converted to uncharged [^3H]-nucleosides by adding 25 μl 1 mg/ml snake venom (Ophiophagus hannah) and incubating at 30° C. for 10 minute. The reaction was stopped by the addition of 1 ml Bio-Rad AG1-X2 resin slurry (1:3). All the charged nucleotides were bound by the resin and only the uncharged [^3H]-nucleosides remained in the supernatant after centrifuging. An aliquot of 200 μl was taken and counted by liquid scintillation. PDE activity was expressed as pmol cyclic nucleotide hydrolyzed/min/ml of enzyme preparation.
Inhibitor studies were carried out in assay buffer with a final concentration of 10% DMSO.

SMILES	IC50 [nM]
CN(C)CCn1c2c(c3ccccc31)CCN(c1nc3ccccc3o1)C2c1ccc2c(c1)OCO2 (stereo not shown) [Cmpd 155]	9200

Same assay, conditions: 10 μM test compound; rabbit PDEV

SMILES	% Inh @ 10 μM (rabbit) [%]
COc1ccc(C2c3[nH]c4ccccc4c3CCN2C(=O)c2cc(C(C)(C)C)nn2Cc2ccccc2)cc1OC (stereo not shown) [Cmpd 134]	5
O=C(c1ccc(-c2cccc(C(F)(F)F)c2)o1)N1CCc2c(n(C(=O)c3ccc(-c4cccc(C(F)(F)F)c4)o3)c3ccccc23)C1c1ccc2c(c1)OC(F)(F)O2 (stereo not shown) [Cmpd 20]	4
CC(=O)Nc1ccc(-c2ccc(C(=O)N3CCc4c([nH]c5ccccc45)C3c3ccc4c(c3)OCO4)o2)cc1 (stereo not shown) [Cmpd 49]	60
CN(C)CCn1c2c(c3ccccc31)CCN(c1nc3ccccc3s1)C2c1ccc2c(c1)OCO2 (stereo not shown) [Cmpd 2]	43
O=C(c1ccc(-c2ccc(Cl)cc2)o1)N1CCc2c(sc3ccccc23)C1c1ccc2c(c1)OCO2 (stereo not shown) [Cmpd 77]	58
COc1ccc(-c2cnc(N3CCc4c(n(CCN(C)C)c5ccccc45)C3c3ccc4c(c3)OCO4)nc2)cc1 (stereo not shown) [Cmpd 6]	95
Cc1onc(-c2ccccc2)c1C(=O)N1CCc2c([nH]c3ccccc23)C1c1ccc(Cl)c(C(F)(F)F)c1 (racemic) [Cmpd 114]	27
O=C(c1cc2cc([N+](=O)[O-])ccc2o1)N1CCc2c([nH]c3ccccc23)C1c1ccc2c(c1)OCO2 (stereo not shown) [Cmpd 14]	88
COC(=O)c1ccc(C2c3[nH]c4ccccc4c3CCN2C(=O)c2cnn(-c3ccccc3)c2C(F)(F)F)cc1 (stereo not shown) [Cmpd 129]	46
O=C(c1cnn(-c2ccccc2)c1C(F)(F)F)N1CCc2c([nH]c3ccccc23)C1c1ccc([N+](=O)[O-])cc1 (stereo not shown) [Cmpd 131]	12
CS(=O)(=O)c1ccc(-c2cnc(N3CCc4c([nH]c5ccccc45)C3c3ccc4c(c3)OCO4)nc2)c([N+](=O)[O-])c1 (stereo not shown) [Cmpd 8]	89
O=C(c1ccc(-c2cccc([N+](=O)[O-])c2)o1)N1CCc2c([nH]c3ccccc23)C1c1ccc([N+](=O)[O-])cc1 (stereo not shown) [Cmpd 85]	26
O=C(c1ccc([N+](=O)[O-])o1)N1CCc2c([nH]c3ccccc23)C1c1ccc2c(c1)OCO2 (stereo not shown) [Cmpd 64]	83
O=C(c1cc(-c2ccccc2)c(C(F)(F)F)s1)N1CCc2c([nH]c3ccccc23)C1c1ccc2c(c1)OCO2 (stereo not shown) [Cmpd 90]	69
O=C(c1ccc(Br)o1)N1CCc2c([nH]c3ccccc23)C1c1ccc2c(c1)OCO2 (stereo not shown) [Cmpd 63]	78
O=C(c1ccc(-c2cc(C(F)(F)F)ccc2Cl)o1)N1CCc2c([nH]c3ccccc23)C1c1ccc2c(c1)OCO2 (stereo not shown) [Cmpd 57]	76
CN(C)CCCCn1c2c(c3ccccc31)CCN(C(=O)c1ccc(-c3cccc(C(F)(F)F)c3)o1)C2c1ccc2c(c1)OCO2 (stereo not shown) [Cmpd 34]	67
Nc1cccc(-c2ccc(C(=O)N3CCc4c([nH]c5ccccc45)C3c3ccc4c(c3)OCO4)o2)c1 (stereo not shown) [Cmpd 59]	92
CC(C)(C)c1ccc(C(=O)N2CCc3c([nH]c4ccccc34)C2c2ccc3c(c2)OCO3)o1 (stereo not shown) [Cmpd 65]	66
CCCc1c(C(=O)N2CCc3c([nH]c4ccccc34)C2c2ccc3c(c2)OCO3)cnn1-c1ccccc1 (racemic) [Cmpd 122]	65

Same assay, conditions: 10 μM test compound; rabbit PDEV; 10 µM

SMILES	% Inh @ 10 μM (rabbit)	% INH @ 10 μM (rabbit) [%]
CCN(CC)CCn1c2c(c3ccccc31)CCN(C(=O)c1ccc(-c3cccc(C(F)(F)F)c3)o1)C2c1ccc2c(c1)OCO2 (stereo not shown) [Cmpd 33]	88% and 63%	–
O=C(c1ccc(-c2ccc(Cl)cc2[N+](=O)[O-])o1)N1CCc2c([nH]c3ccccc23)C1c1ccc2c(c1)OCO2 (stereo not shown) [Cmpd 66]	23%	–
COc1ccc(-c2cnc(N3CC(O)c4c([nH]c5ccccc45)C3c3ccc4c(c3)OCO4)nc2)cc1 (stereo not drawn) [Cmpd 158, 1-(3,4-Methylenedioxy-phenyl)-2-[5-(4-methoxyphenyl)-pyrimidin-2-yl]-4-hydoxy-2,3,4,9-tetrahydro-1H-β-carboline]	–	49

Same assay, conditions: 10 μM test compound; rabbit PDEV; read-out: % INH @ 10 μM (rabbit)

SMILES	inhibition at 10 µM [%]
CN(C)CCn1c2c(c3ccccc31)CCN(C(=O)c1cc3ccccc3o1)C2c1ccc2c(c1)OCO2 (stereo not shown) [Cmpd 147]	52
CN(C)CCn1c2c(c3ccccc31)CCN(c1nc3ccccc3o1)C2c1ccc2c(c1)OCO2 (stereo not shown) [Cmpd 155]	57
CS(=O)(=O)c1ccc(-c2cnc(N3CCc4c(n(CCN5CCCC5)c5ccccc45)C3c3ccc4c(c3)OCO4)nc2)c([N+](=O)[O-])c1 (stereo not shown) [Cmpd 154]	97

Same assay, conditions: 10 μM test compound; rabbit PDEV; read-out: % Inh @ 10 μM (rabbit)

SMILES	inhibition at 10 µM [%]
COc1ccc(-c2cnc(N3CCc4c([nH]c5ccccc45)C3c3ccc4c(c3)OCO4)nc2)cc1OC (stereo not drawn) [Cmpd 7, 1-(3,4-Methylenedioxyphenyl)-2-[5-(3,4-dimethoxyphenyl)pyrimidin-2-yl]-2,3,4,9-tetrahydro-1H-β-carboline]	91

Target: T1, PDEV
Assay: In vitro determination of Ki for phosphodiesterase inhibitors (IC50/Ki, 30 nM 3H-cGMP)
Assay type: biochemical
Settings: printed in the % INH column as Ki value
Protocol: The assay was adapted to a 96-well format. Phosphodiesterase was assayed in 5 mM MgCl2, 15 mM Tris HCl (pH 7.4), 0.5 mg/ml bovine serum albumin, 30 nM ^3H-cGMP and test compound at various concentrations. […] For all measurements, the test compound was dissolved and diluted in 100% DMSO (2% DMSO in assay). The total volume of the assay was 100 μl. The reaction mixture was incubated at 30° C. for 90 minutes. The reaction was stopped by boiling for 1 minute and then immediately cooled by transfer to an ice bath. To each well was then added 25 μl 1 mg/ml snake venom (Ophiophagus hannah) and the reaction mixture incubating at 30° C. for 10 minute. The reaction was stopped by the addition of 1 ml Bio-Rad AG1-X2 resin slurry (1:3). An aliquot of 200 μl was taken and counted by liquid scintillation.
The % inhibition of the maximum substrate conversion (by the enzyme in the absence of inhibitor) was calculated for each test compound concentration. Using GraphPad Prism′s nonlinear regression analysis (sigmoidal dose response), the % inhibition vs log of the test compound concentration was plotted to determine the IC50. Under conditions where substrate concentration <<Km of the enzyme (Km=substrate concentration at which half of the maximal velocity of the enzyme is achieved), Ki is equivalent to the IC50 value. […]

SMILES	Ki [nM]
c1ccc(-c2ccc(N3CCc4c([nH]c5ccccc45)C3c3ccc4c(c3)CCO4)nc2)nc1 (stereo not drawn) [Cmpd 191, 2-[2,3′]Bipyridinyl-6′-yl-1-(2,3-dihydro-benzofuran-5-yl)-2,3,4,9-tetrahydro-1H-β-carboline]	0.69
Cc1ncc(-c2cnc(N3CCc4c([nH]c5ccccc45)C3c3ccc4c(c3)CCO4)nc2)n1C (stereo not drawn) [Cmpd 190, 1-(2,3-Dihydro-benzofuran-5-yl)-2-[5-(2,3-dimethyl-3H-imidazol-4-yl)-pyrimidin-2-yl]-2,3,4,9-tetrahydro-1H-β-carboline]	14.2

Tested on: erectile dysfunction
Assay: not given
Settings: men who suffer from ED of psychogenic or organic etiology; cited from earlier work

SMILES	improved sexual function, share of men
CCCc1nn(C)c2c(=O)[nH]c(-c3cc(S(=O)(=O)N4CCN(C)CC4)ccc3OCC)nc12 [sildenafil, 5-[2-ethoxy-5-(4-methylpiperazin-1-ylsulphonyl)phenyl]-1-methyl-3-n-propyl-6,7-dihydro-1H-pyrazolo[4,3-d]pyrimidin-7-one]	about 70%

Same assay, conditions: patients who had undergone a radical prostatectomy; 15% on placebo; cited from earlier work

SMILES	improved erections, share of patients [%]
CCCc1nn(C)c2c(=O)[nH]c(-c3cc(S(=O)(=O)N4CCN(C)CC4)ccc3OCC)nc12 [sildenafil, 5-[2-ethoxy-5-(4-methylpiperazin-1-ylsulphonyl)phenyl]-1-methyl-3-n-propyl-6,7-dihydro-1H-pyrazolo[4,3-d]pyrimidin-7-one]	43

Target: T2, PDEV (Homo sapiens, UniProt O76074)
T2 construct: rabbit or human tissues were homogenized in an ice-cold buffer solution; from tissue; host or cells: human tissue
Assay: Cyclic nucleotide phosphodiesterase (PDE) assay, inhibition of PDEV isolated from human tissue
Assay type: biochemical
Settings: 10 μM test compound; footnote a: tested using human tissue
Protocol: PDEV was isolated from rabbit and human tissues according to the protocol described by Boolell et al. (Boolell, M., Allen, M. J., Ballard, S. A., Ge[o-Attee, S., Muirhead, G. J., Naylor, A. M., Osterloh, I. H., and Gingell, C) in International Journal of Impotence Research 1996 8, 47-52 with minor modifications.
Briefly, rabbit or human tissues were homogenized in an ice-cold buffer solution containing 20 mM HEPES (pH 7.2), 0.25M sucrose, 1 mM EDTA, and 1 mM phenylmethylsulphonyl fluoride (PMSF). The homogenates were centrifuged at 100,000 g for 60 minutes at 4° C. The supernatant was filtered through […] filter and loaded on a Pharmacia Mono Q anion exchange column (1 ml bed volume) that was equilibrated with 20 mM HEPES, 1 mM EDTA and 0.5 mM PMSF. After washing out unbound proteins, the enzymes were eluted with a linear gradient of 100-600 mM NaCl in the same buffer (35 to 50 ml total, depending on the tissue. Enzymes from the skeletal muscle, corpus cavernosum, retina, heart and platelet were eluted with 35, 40, 45, 50, and 50 ml respectively.) The column was run at a flow rate of 1 ml/min and 1 ml fractions were collected. The fractions comprising various PDE activities were pooled separately and used in later studies.
The PDE assay was carried out as described by Thompson and Appleman in Biochemistry 1971 10, 311-316 with minor modifications, as noted below.
as §1
Inhibitor studies were carried out in assay buffer with a final concentration of 10% DMSO. Under these conditions, the hydrolysis of product increased with time and enzyme concentration in a linear fashion.

SMILES	% INH @ 10 μM
c1ccc2[nH]c(N3CCc4c([nH]c5ccccc45)C3c3ccc4c(c3)OCO4)nc2c1 (stereo not shown) [Cmpd 172]	44^a %

Same assay, conditions: PDEV; footnote a: tested using human tissue

SMILES	IC50 [nM]
COc1ccc(-c2cnc(N3CC(=O)c4c([nH]c5ccccc45)C3c3ccc4c(c3)OCO4)nc2)cc1OC (stereo not shown) [Cmpd 157]	8.7
COc1ccc(-c2cnc(N3CC(=O)c4c([nH]c5ccccc45)C3c3ccc4c(c3)OCO4)nc2)cc1 (stereo not shown) [Cmpd 162]	24
COc1ccc(-c2cnc(N3CCc4c([nH]c5ccccc45)C3c3ccc4c(c3)OCCO4)nc2)cc1 (stereo not shown) [Cmpd 184]	640
COc1ccc(-c2cnc(N3CCc4c([nH]c5ccccc45)C3c3ccc4c(c3)CCO4)nc2)cc1 (stereo not shown) [Cmpd 174]	150
c1cnc(N2CCc3c([nH]c4ccccc34)C2c2ccc3c(c2)OCO3)nc1 (stereo not shown) [Cmpd 168]	2150
c1ccc(-c2cnc(N3CCc4c([nH]c5ccccc45)C3c3ccc4c(c3)OCO4)nc2)nc1 (stereo not shown) [Cmpd 183]	122

Tested on: not given
Assay: not given
Settings: not given

SMILES	melting point [°C]
COc1ccc(-c2cnc(N3CCc4c([nH]c5ccccc45)C3c3ccc4c(c3)OCO4)nc2)cc1OC (stereo not drawn) [Cmpd 7, 1-(3,4-Methylenedioxyphenyl)-2-[5-(3,4-dimethoxyphenyl)pyrimidin-2-yl]-2,3,4,9-tetrahydro-1H-β-carboline]	173 to 175
